In one data set the test system is Caco-2 cells. The data set is described as follows: Uptake of digoxin and ginsenosides in Caco-2 cells. Conditions: for Effect of verapamil on uptake: 10 µM verapamil; for Effect of SLE on intracellular concentration: SLE 2.0 and 10.0 µg/mL, P<0.01. The data set is classed as in vitro ADME, human. The method, then: Caco-2 cells were purchased from American Type Culture Collection (Manassas, VA), and were routinely cultured in Dulbecco's modified Eagle's medium supplemented with 10% fetal bovine serum, 1% nonessential amino acids, 1 mM sodium pyruvate, and 100 U/mL penicillin and streptomycin (Invitrogen, Carlsbad, CA). The cells were grown in an atmosphere of 5% CO2 at 37°C, and cell medium was changed every other day. Cells were seeded at a density of 4×10^4 cells per well in 24-well microporous polycarbonate insert filter plates (0.4-µm pore size) (Corning Costar plates; Corning Life Sciences, Lowell, MA) and grown for 15 days in Caco-2 growth medium. The medium was replaced every 3 to 4 days. Before running the assay, the culture medium was replaced by HBSS buffer supplemented with 10 mM Hepes and 20 mM glucose.
Caco-2 cells were incubated with SLE (2.0 and 10.0 µg/mL) or verapamil (10 µM) for 1.0 h. Then the cells were washed with Hank's to discard SLE or verapamil before the addition of GE (100 µg/mL). The accumulation of ginsenosides lasted for 2 h, and the intracellular concentrations of ginsenosides were measured by LC/MS. All experiments were conducted in triplicate.

The target of another data set is P-gp (MDR1) (Homo sapiens, UniProt P08183). Nature of the data set: Transport of digoxin and ginsenosides across L-MDR1 cell monolayers (efflux ratio). The data set is classed as in vitro ADME. Conditions: human, read-out: Efflux ratio (Papp BL-AP / Papp AP-BL). As to the method:
(§1) LLC-PK1 cells, a cell line lacking P-gp, and the derived cell line L-MDR1, which over-express human MDR1-encoded P-gp, were grown in minimum essential medium with supplements at 37°C, 5% CO2, and 95% humidity. LLC-PK1 and L-MDR1 cells were seeded at a density of 12×10^6 cells per 150-cm^2 flask and grown for 7 days in medium 199 supplemented with 2 mM glutamine, 10% fetal bovine serum, 10 mg/500 mL of streptomycin, and 10,000 IU/500 mL of penicillin. To ensure a constant expression level of transport protein, L-MDR1 cells were grown in the presence of 640 nM vincristine. Cells were grown as monolayer on polycarbonate membrane filters (Transwell; Costar Corporation, Cambridge, MA) as outlined previously. Transepithelial resistance was measured in each well using a Millicell ERS ohmmeter (Millipore, Bedford, MA); wells registering a resistance of 200 ohms or greater, after correcting for the resistance obtained in control blank wells, were used in the transport experiments.
The LLC-PK1 and L-MDR1 cells were washed with warm Hank's balanced salt solution HBSS (pH 7.4) twice before transport experiment. HBSS containing verapamil (10 µM), SLE (2.0 and 10.0 µg/mL) or blank HBSS (control) was then loaded into both apical and basolateral chambers. After incubation at 37°C for 1.5 h, GE (100 µg/mL) was added to either the apical or basolateral side to evaluate the transport in absorptive and secretive directions, respectively. The cell monolayer was then incubated for another 2 h. Finally, the concentrations of ginsenosides were determined by LC/MS. All experiments were conducted in triplicate.
For the transport assay, the apparent permeability (P app, cm/s) in each direction (A→B and B→A) was calculated as follows, where A is the surface area of the membrane inserts (0.0804 cm^2), C 0 is the initial concentration of the compound applied in the donor compartment (2 µM), and △Q is the amount (micromoles) of compound transported over time △t (5 h = 18,000 s): [drawing 1]
The efflux ratio (ER) was a dimensionless number calculated as the ratio of the apparent permeability in the B→A direction divided by the apparent permeability in the A→B direction. [drawing 2]

A short description of data set [1]: Rat plasma pharmacokinetics after 10-day vehicle/SLE and digoxin or GE. Conditions: rats; for AUC / Cmax / AUC(0-inf) / MRT inf / Tmax / half-life / AUCINF_obs / Cl_F_obs: day 11 digoxin 0.5 mg/kg or GE 120 mg/kg ig; for AUC(0-inf): read-out: AUCINF_obs; for MRT inf: read-out: MRTINF_obs; for half-life: read-out: t1/2 (converted); for Increase of AUC (AUC0-∞) by 10 continuous days administration of SLE: SLE 500 mg/kg x 10 days vs vehicle, GE ig on day 11. The data set is classed as in vivo, Sprague-Dawley rats. The method, then:
This study was carried out in strict accordance with the recommendations in the Guide for the Care and Use of Laboratory Animals of the National Institutes of Health. The protocol was approved by the Committee on the Ethics of Animal Experiments of the China Pharmaceutical University. All surgery was performed under sodium pentobarbital anesthesia, and all efforts were made to minimize suffering. […] The rats were fed with standard laboratory food and water and fasted overnight but with free access to water before the test. To evaluate the effect of long-term treatment with SLE on the pharmacokinetics of ginsenosides, 24 rats were also divided into four groups (group I∼ group IV) with 6 animals each. […] On the 11th day, digoxin was administered intragastrically to rats (group I and group II) at a single dose of 0.5 mg/kg, GE was administered intragastrically to rats (group III and group IV) at a single dose of 120 mg/kg. […] Plasma was obtained by centrifugation at 5000 g for 10 min and stored at −20°C before analysis. The plasma / cell samples were extracted using a liquid–liquid extraction technique. To each tube containing 100 µL plasma, 10 µL internal standard (digoxin, 1.0 µg/mL) and 1.0 mL of n-butanol were added. The mixture was then vortex-extracted for 2 min, and centrifuged for 10 min at 10,000 g. […] The plasma concentration-time curves of ginsenosides in rats were obtained by plotting the mean plasma concentrations versus time. Pharmacokinetic parameters were calculated using the WinNonlin 6.3 program (Pharsight Inc., Mountain View, CA). The elimination half-life (t 1/2) value was calculated as 0.693/β, where β is the elimination rate constant calculated from the terminal linear portion of the log plasma concentration-time curve. The total areas under the plasma concentration- time curve from time 0 to the last quantifiable time point (AUC0-t) and from time 0 to infinity (AUC0-∞) were calculated using the log trapezoidal rule. [drawing 3] The maximum plasma concentrations (C max) for ginsenosides were obtained by visual inspection of the plasma concentration-time curve, whereas the initial drug concentration (the extrapolated concentration at zero time) of the drug after intravenous injection was calculated by back-extrapolation of the plasma concentration-time curve to the y-axis.

The target of data set [2] is human MDR1-encoded P-gp (L-MDR1 cells) (Homo sapiens, UniProt P08183). Nature of the data set: Uptake (intracellular concentration) of digoxin and ginsenosides in L-MDR1 cells. The data set is classed as in vitro ADME. The method, then: as §1
Sequence of human MDR1-encoded P-gp (L-MDR1 cells) (P08183 whole entry): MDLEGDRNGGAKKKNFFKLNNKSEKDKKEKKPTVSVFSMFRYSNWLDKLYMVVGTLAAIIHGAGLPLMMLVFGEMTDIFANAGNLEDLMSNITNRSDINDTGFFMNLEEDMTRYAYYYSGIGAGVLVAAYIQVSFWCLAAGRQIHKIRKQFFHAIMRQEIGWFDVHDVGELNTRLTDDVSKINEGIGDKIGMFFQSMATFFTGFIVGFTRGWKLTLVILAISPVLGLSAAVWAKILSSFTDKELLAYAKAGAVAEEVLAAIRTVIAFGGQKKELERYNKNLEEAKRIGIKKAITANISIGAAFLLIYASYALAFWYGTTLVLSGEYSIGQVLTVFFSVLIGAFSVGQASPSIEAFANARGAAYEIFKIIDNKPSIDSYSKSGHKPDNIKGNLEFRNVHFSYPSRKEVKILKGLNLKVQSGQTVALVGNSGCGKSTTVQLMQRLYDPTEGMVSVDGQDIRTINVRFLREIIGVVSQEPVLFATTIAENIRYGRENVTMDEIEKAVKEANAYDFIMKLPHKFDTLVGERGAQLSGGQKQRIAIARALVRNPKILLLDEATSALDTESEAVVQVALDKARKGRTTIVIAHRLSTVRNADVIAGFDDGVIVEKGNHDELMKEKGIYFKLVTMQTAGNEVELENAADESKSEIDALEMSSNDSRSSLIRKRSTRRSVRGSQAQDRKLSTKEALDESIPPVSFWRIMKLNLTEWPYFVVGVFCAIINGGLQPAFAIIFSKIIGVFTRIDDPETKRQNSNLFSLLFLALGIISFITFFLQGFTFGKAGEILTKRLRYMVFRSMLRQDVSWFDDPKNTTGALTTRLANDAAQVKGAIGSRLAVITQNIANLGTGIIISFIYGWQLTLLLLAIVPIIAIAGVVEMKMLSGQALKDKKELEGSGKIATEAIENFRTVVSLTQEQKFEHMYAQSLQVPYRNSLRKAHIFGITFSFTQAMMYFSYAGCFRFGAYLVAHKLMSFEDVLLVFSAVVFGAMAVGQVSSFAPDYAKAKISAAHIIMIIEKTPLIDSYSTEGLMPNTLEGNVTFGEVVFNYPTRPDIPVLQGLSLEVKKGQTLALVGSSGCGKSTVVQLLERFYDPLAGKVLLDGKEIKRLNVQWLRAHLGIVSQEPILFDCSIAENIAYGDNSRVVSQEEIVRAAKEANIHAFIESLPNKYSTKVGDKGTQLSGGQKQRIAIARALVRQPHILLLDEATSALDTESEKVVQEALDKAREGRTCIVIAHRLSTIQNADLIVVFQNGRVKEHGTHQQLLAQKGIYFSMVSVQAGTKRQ
LLC-PK1 and L-MDR1 cells were incubated with SLE (2.0 and 10.0 µg/mL) or verapamil (10 µM) for 1.0 h, and then were washed to discard SLE or verapamil before adding 100 µg/mL of GE. The accumulation of GE lasted for 2 h, and the intracellular concentrations of ginsenosides were measured by LC/MS. All experiments were conducted in triplicate.

[3] abbreviates: LLC-PK1, pH 7.4, with verapamil 10 µM, L-MDR1 cells, presence of 10 µM verapamil.
[4] abbreviates: female, Sprague-Dawley, rat, plasma, po, SLE 500 mg/kg ig once a day for 10 days.
Where [5] appears, read: female, Sprague-Dawley, rat, plasma, po, control: vehicle once a day for 10 days.
Setting [6] is: SLE 500 mg/kg ig once a day for 10 days.
[7] abbreviates: control: vehicle once a day for 10 days.

For orientation: AUC means the area under the concentration-time curve, a measure of exposure. Broadly, the Cmax is the highest concentration seen after dosing. For orientation: Tmax means the time from dosing to the highest level.

Each structure is given as a SMILES string. Where two headings read alike, the source gives them in different places.

Sequence of P-gp (MDR1) (P08183 whole entry): as above

On to `CC(C)=CCC[C@](C)(O[C@@H]1O[C@H](CO[C@@H]2O[C@H](CO)[C@@H](O)[C@H](O)[C@H]2O)[C@@H](O)[C@H](O)[C@H]1O)[C@H]1CC[C@]2(C)[C@@H]1[C@H](O)C[C@@H]1[C@@]3(C)CC[C@H](O[C@@H]4O[C@H](CO)[C@@H](O)[C@H](O)[C@H]4O[C@@H]4O[C@H](CO)[C@@H](O)[C@H](O)[C@H]4O)C(C)(C)[C@@H]3CC[C@]12C` [Rb1, ginsenoside Rb1], for which, in the data set with Caco-2 cells, the “Effect of verapamil on uptake” value is listed as “significantly enhanced” and the “Effect of SLE on intracellular concentration” value is on record as “concentration dependently increase”. Besides, the efflux ratio at 2 h, 100 µg/mL on P-gp (MDR1) (LLC-PK1, pH 7.4, L-MDR1 cells, control (absence of verapamil), GE 100 µg/mL, 2 h) was over 3.5. At P-gp (MDR1) (setting [3]), the efflux ratio at 2 h, 100 µg/mL is 1.57. Further, in data set [1] (setting [4]), the AUC amounted to 25600 ± 1300 ng·h/mL, the concentration peaked (Cmax) at 736 ± 143 ng/mL, the AUC(0-inf) was 27000 ± 2380 ng·h/mL and the MRT inf was 33.5 ± 7.91 h. Also, the half-life in data set [1] (setting [4]) is 19.3 ± 8.29 h. In data set [1] (female, Sprague-Dawley, rat, plasma, po, SLE 500 mg/kg ig once a day for 10 days, read-out: Tmax), the Tmax came out at 9.6 ± 2.19 h. In data set [1] (setting [5]), the AUC came to 14100 ± 5070 ng·h/mL, the Cmax worked out at 430 ± 135 ng/mL, the AUC(0-inf) amounted to 14300 ± 5180 ng·h/mL and the MRT inf is 28.1 ± 4.81 h. Besides, the half-life in data set [1] (setting [5]) was 17.2 ± 2.16 h. Also, the time to peak (Tmax) in data set [1] (female, Sprague-Dawley, rat, plasma, po, control: vehicle once a day for 10 days, read-out: Tmax) was determined as 10 ± 4.47 h. Moreover, in data set [1] (setting [6]), the AUCINF_obs is 27017 ± 2381 ng·h/mL and the Cl_F_obs stood at 0.0037 ± 0.0003 L/h. Also, the “Increase of AUC (AUC0-∞) by 10 continuous days administration of SLE” value in data set [1] came out at 1.82 fold. In data set [1] (setting [7]), this compound showed an AUCINF_obs of 14324 ± 5178 ng·h/mL and a Cl_F_obs of 0.0079 ± 0.0035 L/h. Moreover, the “Increase of intracellular concentration by SLE” value (“Increase … by SLE” for short) in data set [2] (2.0 µg/mL SLE) turned out to be 2.9 fold. In addition, the “Increase … by SLE” value in data set [2] (10.0 µg/mL SLE) is listed as 5.1 fold.
As for `CC(C)=CCC[C@](C)(O[C@@H]1O[C@H](CO)[C@@H](O)[C@H](O)[C@H]1O)[C@H]1CC[C@]2(C)[C@@H]1[C@H](O)C[C@@H]1[C@@]3(C)CC[C@H](O[C@@H]4O[C@H](CO)[C@@H](O)[C@H](O)[C@H]4O[C@@H]4O[C@H](CO)[C@@H](O)[C@H](O)[C@H]4O)C(C)(C)[C@@H]3CC[C@]12C` [Rd, ginsenoside Rd], in the data set with Caco-2 cells, the “Effect of verapamil on uptake” value was “significantly enhanced” and the “Effect of SLE on intracellular concentration” value is recorded as “concentration dependently increase”. The efflux ratio at 2 h, 100 µg/mL at P-gp (MDR1) (setting [3]) turned out to be 2.19. In addition, in data set [1] (setting [4]), the AUC is 7640 ± 2690 ng·h/mL, the Cmax worked out at 265 ± 49.4 ng/mL, the AUC(0-inf) came to 11700 ± 8560 ng·h/mL and the MRT inf was 26.3 ± 90.6 h. In addition, the half-life in data set [1] (setting [4]) is 18 ± 75.9 h. In data set [1] (setting [5]), the AUC was determined as 6570 ± 1820 ng·h/mL, the Cmax worked out at 262 ± 104 ng/mL, the AUC(0-inf) was determined as 7460 ± 2340 ng·h/mL and the MRT inf was 22.4 ± 9.98 h. Also, the half-life in data set [1] (setting [5]) was 20.8 ± 9.64 h. In data set [1] (setting [6]), the Cl_F_obs was found to be 0.0125 ± 0.0084 L/h and the time to peak (Tmax) came out at 8.00 ± 2.45 h. The “Increase of AUC (AUC0-∞) by 10 continuous days administration of SLE” value in data set [1] is given as 1.60 fold. In data set [1] (setting [7]), the Tmax was found to be 8.00 ± 2.45 h. Further, the “Increase … by SLE” value in data set [2] (2.0 µg/mL SLE) came out at 2.9 fold. The “Increase … by SLE” value in data set [2] (10.0 µg/mL SLE) turned out to be 4.3 fold.
